Assay results taken from publication PMC7749516, “Safety and nonclinical and clinical pharmacokinetics of PC945, a novel inhaled triazole antifungal agent” (Pharmacology Research & Perspectives, 2020).
Where two headings read alike, the source gives them in different places.

Legend:
[1] = cited from earlier work
[2] = system: CYP3A4/5; experiment: CYP inhibition in pooled human liver microsomes; type: in vitro ADME; conditions: without preincubation, pooled human liver microsomes
Protocol: Microsomal reactions were terminated by adding 100 μL of cold (4°C) methanol containing appropriate internal standard. Aliquots (150 μL) of each sample were centrifuged and the supernatant was used for substrate analysis by ultra‐performance liquid chromatography with tandem mass spectrometry (UPLC‐MS/MS) on the day of incubations.
Change in substrate concentration was measured to determine the extent of CYP‐isoform inhibition. The 30‐minute preincubations were performed to determine whether there was time‐dependent inhibition of any CYP isoform (CYP1A2, 2B6, 2C8, 2C9, 2C19, 2D6, and 3A4/5). Untreated control contained only solvent, dimethyl sulfoxide (≤0.5% [v/v]).

SMILES | Cmax ([1]; after 15‐day, 200 mg daily oral dosing) [nM] | IC50 ([2]; probe midazolam, substrate midazolam) [µM] | IC50 ([2]; probe testosterone, substrate testosterone) [µM] | Mean concentration in pulmonary alveolar cells relative to lung epithelial lining fluid and plasma ([1]; 14‐day oral 400 mg twice daily, steady state) | Cmax ([1]; after 200 mg three times daily oral dosing) [nM]
CCC(C)n1ncn(-c2ccc(N3CCN(c4ccc(OCC5COC(Cn6cncn6)(c6ccc(Cl)cc6Cl)O5)cc4)CC3)cc2)c1=O (centres unmarked) [itraconazole] | 1520 |  |  |  | 
CC[C@@H]([C@H](C)O)n1ncn(-c2ccc(N3CCN(c4ccc(OC[C@@H]5CO[C@@](Cn6cncn6)(c6ccc(F)cc6F)C5)cc4)CC3)cc2)c1=O [posaconazole, reference compound] |  | 0.32 | 0.081 | over 30 fold | 830
